Columns and labels:
[1] = system: six human cancer cell lines (prostate, glioma, pancreas, colon, lung, and breast cancers); test: MTT test of overall cell growth, mean of six human cancer cell lines; type: cell-based; conditions: 72 hours of incubation, mean of the six human cancer cell lines, range of molar concentrations giving 50% inhibition of overall tumor cell growth
Protocol: MTT tests were performed in order to rapidly, i.e. within 5 days, measure the effect of compounds of this invention on the overall cell growth. The test measured the number of metabolically active living cells that were able to transform the yellow product 3-(4,5-dimethylthiazol-2-yl)-2,5-diphenyl tetrazolium bromide (herein referred as MTT) into the blue product formazan dye by mitochondrial reduction. The amount of formazan obtained at the end of the experiment, measured by means of a spectrophotometer, is directly proportional to the number of living cells.
Six human cancer cell lines described in table 7 were used in the following MTT tests. These cancer cell lines cover six histological cancer types, being prostate, glioma, pancreas, colon, lung, and breast cancers.
To perform the assay, cells were allowed to grow in 96-well micro-wells with a flat bottom with an amount of 100 μl of cell suspension per well with 1,000 to 4,000 cells/well depending on the cell type used. Each cell line was seeded in a well known MEM 10% serum culture medium.
The detailed experimental procedure was the following: after a 24-hour period of incubation at 37° C., the culture medium was replaced by 100 μl of fresh medium in which the tested compound was previously dissolved, at the following molar concentrations: 10^−9 M, 5.10^−9 M, […], 10^−7 M, 5.10^−7 M, 10^−6 M, 5.10^−6 M, and […]. Each experiment was repeated 6 times.
After 72 hours of incubation at 37° C. with (experimental conditions) or without (control condition) the compound to be tested, the medium was replaced by 100 μl MTT dissolved in RPMI (1640 without phenol red) at a concentration of 1 mg/ml. The micro-wells were subsequently incubated during 3 hours at 37° C. and centrifuged at 400 g during 10 minutes. MTT was removed and formazan crystals formed were dissolved in 100 μl DMSO. The micro-wells were shaken for 5 minutes and read on a spectrophotometer at wavelengths of 570 nm (maximum formazan absorbance) and 630 nm (background noise).
For each experimental condition, the mean optical density was calculated, allowing the determination of the percentage of remaining living cells in comparison to the control.

in vivo = conditions: mouse, maximum tolerated dose, single intravenous dose, healthy mice, survival and weights recorded up to 14 days
Protocol: The maximum tolerated dose (herein after MTD) is defined as the maximum amount of a given drug which can be administered acutely (i.e. in one intraperitoneal, intravenous, subcutaneous or oral single dose) to healthy animals, i.e. animals not grafted with tumors. In this assay, compounds were administered intravenously. The survival times and weights of the animals were recorded up to 14 days post injection. Five different doses of each compound were used for the determination of the MTD index. Each experimental group comprised 3 mice for the determination of the MTD (expressed in mg/kg).

[2] = system: PC3 (apoptosis-resistant cancer cells); test: Cellular imaging (computer-assisted phase-contrast microscopy): cell migration and global growth ratio; type: cell-based, human; conditions: PC3, 100 nM; for Ratio GGRtreated cells/GGRcontrol cells: 72 h, global growth ratio; for effect on cell migration: filmed for 72 h
Protocol: (§1) A cellular imaging approach (Debeir et al., Cytometry 60:29-40, 2004; Debeir et al., IEEE Trans Med Imaging 24:697-711, 2005) was used to investigate whether the isocarbostyril alkaloid derivatives of the present invention were able to impair cell proliferation and cell migration in apoptosis-sensitive (U-373MG—see Table 7) as well as apoptosis-resistant (PC3—see Table 7) cancer cells. Cellular imaging relied on the use of computer-assisted phase-contrast microscopy making possible to film the behavior of living cells in culture dishes for several days.
(§2) Cells were seeded in 25-cm^2 at a low density, treated or not with the compounds of the present invention (at a concentration of 100 nM) and filmed thereafter for a period of 72 h. The analysis of the films was performed by two operators, working independently. The effect on cell migration was characterized as +++ (high effect: cell migration of most cells is drastically altered for most of the duration of the film), ++ (medium effect: compound altering cell migration of an important proportion of the cells although less drastically), + (low effect: compound affecting cell migration of a small part of the cell population, or only for a limited part of the 72 h incubation), − (no effect: as compared to the control conditions, no difference is observed). The effect on the overall growth was measured by counting the number of cells on the first (Oh) and the last image (72 h) of each film. The global growth ratio (GGR) was then deduced by dividing the number of cells on the last image by the number of cells on the first image. The ratio GGRtreated cells/GGRcontrol cells, was further calculated thereby obtaining a value that describes the effect of compounds of the present invention on the overall cell growth.

[3] = system: U-373MG (apoptosis-sensitive cancer cells); test: as above; type: cell-based, human; conditions: 100 nM; for Ratio GGRtreated cells/GGRcontrol cells: 72 h, global growth ratio; for effect on cell migration: filmed for 72 h
Protocol: as §1, §2

In the case of `O=C1N[C@@H]2C(=C[C@H](O)[C@@H](O)[C@H]2O)c2cc3c(c(O)c21)OCO3` [narciclasine, reference compound], the IC50 [1] is reported as 10 to 50 nM.
With `O=C1c2c(cc3c(c2OCc2ccccc2)OCO3)C2=C[C@H](O)[C@@H](O)[C@@H](O)[C@@H]2N1Cc1ccccc1` [Compound 9, (2S,3R,4S,4aR)-2,3,4-trihydroxy-7-[benzyloxy]-5-benzyl-(1,3)dioxolo(4,5-j)-3,4,4a,5-tetrahydrophenanthridin-6(2H)-one] the IC50 [1] was over 10000 nM and the MTD at 14 days (in vivo) was 40 mg/kg.
`CCOC(=O)COc1c2c(cc3c1C(=O)N[C@@H]1C3=C[C@H](OC(C)=O)C(OC(C)=O)[C@H]1OC(C)=O)OCO2` (stereo partly drawn) [Compound 2, ethyl ({(2S,3R,4S,4aR)-2,3,4-tris[(methylcarbonyl)oxy]-(1,3)dioxolo(4,5-j)-6-oxo-2,3,4,4a,5,6-hexahydrophenanthridin--7-yl}oxy)acetate] gave an IC50 [1] of over 10000 nM.
For `CC(=O)O[C@H]1C=C2c3cc4c(c(O)c3C(=O)N[C@H]2[C@H](O)[C@@H]1O)OCO4` [Compound 11, (2S,3S,4S,4aR)-3,4,7-trihydroxy-(1,3)dioxolo(4,5-j)-6-oxo-2,3,4,4a,5,6-hexahydrophenanthridin--2-yl acetate], the IC50 [1] was 100 to 500 nM, the MTD at 14 days (in vivo) was over 80 mg/kg and the “Ratio GGRtreated cells/GGRcontrol cells” value [2] was 0.40. The “effect on cell migration” value [2] was “+++”, the “Ratio GGRtreated cells/GGRcontrol cells” value [3] was 0.42 and the “effect on cell migration” value [3] was “++”.
For `O=C1N[C@@H]2C(=C[C@H](O)[C@@H](O)[C@H]2OS(=O)(=O)[O-])c2cc3c(c(O)c21)OCO3.[Na+]` [Compound 1, (2S,3R,4S,4aR)-2,3,7-trihydroxy-(1,3)dioxolo(4,5-j)-6-oxo-2,3,4,4a,5,6-hexahydrophenanthridin-4-yl sodium sulfate], the IC50 [1] was 1000 to 5000 nM and the MTD at 14 days (in vivo) was over 80 mg/kg.
With `CC(=O)Oc1c2c(cc3c1C(=O)N[C@@H]1C3=C[C@H](OC(C)=O)[C@@H](O)[C@H]1O)OCO2` [Compound 10, (2S,3S,4S,4aR)-3,4-dihydroxy-(1,3)dioxolo(4,5-j)-6-oxo-2,3,4,4a,5,6-hexahydrophenanthridin--2,7-diyl diacetate] the IC50 [1] was 100 to 500 nM, the MTD at 14 days (in vivo) was over 80 mg/kg and the “Ratio GGRtreated cells/GGRcontrol cells” value [2] was 1.38. The “effect on cell migration” value [2] was “+”, the “Ratio GGRtreated cells/GGRcontrol cells” value [3] was 1.06 and the “effect on cell migration” value [3] was “−”.
Work on `CCC(=O)O[C@H]1C=C2c3cc4c(c(O)c3C(=O)N[C@H]2[C@H](O)[C@@H]1O)OCO4` [Compound 19, (2S,3S,4S,4aR)-3,4,7-trihydroxy-(1,3)dioxolo(4,5-j)-6-oxo-2,3,4,4a,5,6-hexahydrophenanthridin-2-yl propionate] yielded an IC50 [1] of 10 to 50 nM and an MTD at 14 days (in vivo) of 40 mg/kg.
For `CC(=O)O[C@@H]1[C@H](OC(C)=O)[C@@H](OC(C)=O)C=C2c3cc4c(c(OCc5ccc6ccccc6c5)c3C(=O)N[C@H]21)OCO4` [Compound 7, (2S,3R,4S,4aR)-7-[(2-naphthylmethoxy]-(1,3)dioxolo(4,5-j)-6-oxo-2,3,4,4a,5,6-hexahydrophenanthridin-2,3,4-triyl triacetate], the IC50 [1] was 1000 to 5000 nM.
Compound `COC(=O)COc1c2c(cc3c1C(=O)N[C@@H]1C3=C[C@H](O)[C@@H](O)[C@H]1O)OCO2` [Compound 5, methyl {[(2S,3R,4S,4aR)-2,3,4-trihydroxy-(1,3)dioxolo(4,5-j)-6-oxo-3,4,4a,5-tetrahydrophenanthridin-6(2H)-7-yl]oxy}acetate] has an IC50 [1] of 5000 to 10000 nM.
In the case of `O=C(O[C@H]1C=C2c3cc4c(c(O)c3C(=O)N[C@H]2[C@H](O)[C@@H]1O)OCO4)c1ccccc1` [Compound 13, (2S,3S,4S,4aR)-3,4,7-trihydroxy-(1,3)dioxolo(4,5-j)-6-oxo-2,3,4,4a,5,6-hexahydrophenanthridin--2-yl benzoate], the IC50 [1] is reported as 10 to 50 nM, the MTD at 14 days (in vivo) is reported as 10 mg/kg and the “Ratio GGRtreated cells/GGRcontrol cells” value [2] is reported as 0.31. For the same compound, the “effect on cell migration” value [2] was “+++”, the “Ratio GGRtreated cells/GGRcontrol cells” value [3] was 0.45 and the “effect on cell migration” value [3] was “++”.
Compound `CCOC(=O)COc1c2c(cc3c1C(=O)N(CC(=O)OCC)[C@@H]1C3=C[C@H](OC(C)=O)C(OC(C)=O)[C@H]1OC(C)=O)OCO2` (stereo partly drawn) [Compound 3, ethyl [(2S,3R,4S,4aR)-2,3,4-tris[(methylcarbonyl)oxy]-(1,3)dioxolo(4,5-j)-7-(2-ethoxy-2-oxoethoxy)-6-oxo-2,3,4,4a,5,6-hexahydrophenanthridin--5(3H)-yl]acetate] has an IC50 [1] of over 10000 nM.
With `CC(C)C(=O)O[C@H]1C=C2c3cc4c(c(O)c3C(=O)N[C@H]2[C@H](O)[C@@H]1O)OCO4` [Compound 20, (2S,3S,4S,4aR)-3,4,7-trihydroxy-(1,3)dioxolo(4,5-j)-6-oxo-2,3,4,4a,5,6-hexahydrophenanthridin-2-yl 2-methylpropanoate] the IC50 [1] was 10 to 50 nM and the MTD at 14 days (in vivo) was 40 mg/kg.
Work on `O=C1N[C@@H]2C(=C[C@H](O)[C@@H](O)[C@H]2O)c2cc3c(c(OCc4ccc5ccccc5c4)c21)OCO3` [Compound 8] yielded an IC50 [1] of 1000 to 5000 nM and an MTD at 14 days (in vivo) of over 80 mg/kg.
`O=C(O)COc1c2c(cc3c1C(=O)N[C@@H]1C3=C[C@H](O)[C@@H](O)[C@H]1O)OCO2` [Compound 6, {[(2S,3R,4S,4aR)-2,3,4-trihydroxy-(1,3)dioxolo(4,5-j)-6-oxo-3,4,4a,5-tetrahydrophenanthridin-6(2H)-7-yl]oxy}acetic acid] showed an IC50 [1] of 5000 to 10000 nM.
`CC(=O)O[C@@H]1[C@H](OC(C)=O)[C@@H](OC(C)=O)C=C2c3cc4c(c(O)c3C(=S)N[C@H]21)OCO4` [Compound 4, (2S,3R,4S,4aR)-7-hydroxy-(1,3)dioxolo(4,5-j)-6-thioxo-2,3,4,4a,5,6-hexahydrophenanthridin--2,3,4-triyl triacetate] showed an IC50 [1] of 1000 to 5000 nM and an MTD at 14 days (in vivo) of 40 mg/kg.
